Laboratory results reported in the NIST ThermoML archive (doi:10.1021/je050056e).

Conditions: Liquid; for mass density: 101.33 kPa

FC(F)(F)C(F)(F)C(F)(F)C(F)(F)C(F)(F)C(F)(F)C(F)(F)C(F)(F)Br [1-bromoperfluorooctane]
Conditions	mass density [kg/m3]	vapor or sublimation pressure [kPa]
288.15 K	1938.6	–
288.22 K	–	0.38
293.15 K	1926.7	–
293.2 K	–	0.54
298.08 K	–	0.69
298.15 K	1914.8	–
303.15 K	1902.8	–
303.26 K	–	0.98
308.15 K	1890.8	–
308.22 K	–	1.3
313.15 K	1878.6	–
313.18 K	–	1.67
318.09 K	–	2.24
322.92 K	–	2.89
327.88 K	–	3.69
332.78 K	–	4.7

FC(F)C(F)(F)C(F)(F)C(F)(F)C(F)(F)C(F)(F)C(F)(F)C(F)(F)F [1H-perfluorooctane]
Conditions	mass density [kg/m3]	vapor or sublimation pressure [kPa]
288.15 K	1773.6	–
288.35 K	–	1.18
293.15 K	1761.8	–
293.26 K	–	1.6
298.15 K	1749.9	–
298.26 K	–	2.18
303.15 K	1737.9	–
303.19 K	–	2.84
308.15 K	1725.8	3.72
313.13 K	–	4.87
313.15 K	1713.6	–
318.06 K	–	6.22
323.01 K	–	8.07
328 K	–	10.25
332.89 K	–	12.83

FC(F)(F)C(F)(F)C(F)(F)C(F)(F)C(F)(F)C(F)(F)C(F)(F)C(F)(F)C(F)(F)F [eicosafluorononane]
Conditions	mass density [kg/m3]	vapor or sublimation pressure [kPa]
288.15 K	1812.2	–
288.18 K	–	0.68
293.15 K	1800.1	–
293.18 K	–	0.94
298.11 K	–	1.29
298.15 K	1787.9	–
303.1 K	–	1.71
303.15 K	1775.7	–
308.19 K	–	2.32
313.15 K	1750.9	–
313.17 K	–	3.06
318.22 K	–	3.99
323.15 K	–	5.14
328.15 K	–	6.59
333.15 K	–	8.42

Fc1c(F)c(F)c(F)c(F)c1F [hexafluorobenzene]
Conditions	mass density [kg/m3]	vapor or sublimation pressure [kPa]
288.15 K	1628.9	–
288.23 K	–	6.9
293.15 K	1617.5	–
293.51 K	–	9
297.98 K	–	11.16
298.15 K	1606.2	–
302.96 K	–	14.2
303.15 K	1594.8	–
307.96 K	–	17.93
308.15 K	1583.3	–
312.96 K	–	22.25
313.15 K	1571.8	–
317.96 K	–	27.56
322.96 K	–	33.85
327.95 K	–	41.16
333.01 K	–	49.95

Fc1c(F)c(F)c(C(F)(F)F)c(F)c1F [octafluorotoluene]
Conditions	mass density [kg/m3]	vapor or sublimation pressure [kPa]
288.15 K	1682.8	–
288.23 K	–	2.18
293.15 K	1672.2	–
293.2 K	–	2.95
298.15 K	1661.6	–
298.28 K	–	3.87
303.15 K	1650.9	–
303.18 K	–	5.09
308.15 K	1640.2	6.54
313.15 K	1629.4	8.43
318.15 K	–	10.69
323.15 K	–	13.38
328.45 K	–	16.86
333.93 K	–	21.31

FC1(F)C(F)(F)C(F)(F)C2(F)C(F)(F)C(F)(F)C(F)(F)C(F)(F)C2(F)C1(F)F (centres undefined) [perfluorodecalin]
Conditions	mass density [kg/m3]	vapor or sublimation pressure [kPa]
288.15 K	1952.8	–
288.25 K	–	0.57
293.15 K	1941.7	–
293.25 K	–	0.73
298.15 K	1930.5	–
298.21 K	–	0.91
303.15 K	1919.2	–
303.29 K	–	1.25
308.23 K	–	1.59
313.15 K	1896.6	–
313.22 K	–	2.05
318.21 K	–	2.66
323.18 K	–	3.45
328.17 K	–	4.41
333.2 K	–	5.47

FC(F)(F)C(F)(F)C(F)(F)C(F)(F)C(F)(F)C(F)(F)F [perfluorohexane]
Conditions	mass density [kg/m3]	vapor or sublimation pressure [kPa]
288.15 K	1705.6	–
288.31 K	–	18.78
293.15 K	1691	–
293.22 K	–	23.58
298.09 K	–	29.28
298.15 K	1676.1	–
302.98 K	–	36.19
303.15 K	1661.1	–
307.97 K	–	44.38
313.15 K	1630.2	–
313.17 K	–	54.56
318.15 K	–	65.86
323.13 K	–	78.91
328.11 K	–	94.08
333.1 K	–	111.39
